Test results reported in patent publication US6767891B2, “Peptides with wound healing activity” (priority 2000, dated 2004).
Where no end group is shown, it is not given here.

What was measured:
[1] = system: NHVEC; test: scratch wound closure assay; format: cell-based, human; settings: 10 ng/ml, scratched confluent monolayer
Experimental: To examine the effects of TB4 and TA1 (10 ng/ml) on NHVEC migration, a scratch would closure assay was used.

[2] = system: normal human vascular endothelial cells (NHVEC); test: Boyden chamber migration assay; format: cell-based; settings: for cell migration over migration in the presence of media alone / migration response compared to positive controls VEGF, PDGF, FGF: 100 ng/ml; for concentration of maximal effect on migration: dose response
Experimental: The effects of TB4 and TA1 on endothelial cell migration were determined. To investigate the possibility that these peptides effect the migration of normal human vascular endothelial cells (NHVEC) in vitro, a Boyden chamber migration assay was performed.
In the experiments of Table 1 and FIG. 1, normal human […] endothelial cells are used at 5×10^4 cells per well. The wells are coated with 100 μg/ml […] Type IV.

[3] = system: venous stasis ulceration; test: Clinical course of Patient 1, shin ulcer; format: in vivo, human
Excerpt: The injury started with a bruise on the left shin, but approximately seven weeks later the area started to get erythematous. The patient was sent by the general internist to the local hospital wound healing center, where the wound was debrided and Silvadene cream was used. However, the patient was not progressing well and grafting was considered. […] The underlying problem was venous stasis with the development of ulceration secondary to minor trauma. The ulcer was about 3.0 cm by 1.0 cm in size with a 1-cm rim of mild erythema. […] The patient was given a preparation containing TA1 to be used twice daily to the small 4 mm area.
The treatment with TA1 was continued for another week twice daily.
At this point, treatment was changed to a preparation containing TB4 to be applied twice daily to the entire ulcer.
After the entire ulcer had been treated for seven days with TB4 twice daily, it was noted that the size of the ulcer was starting to reduce. The wound center physician was concerned about infection (cellulitis around the ulcer). The patient was placed on oral antibiotics for 10 days. However, when the surrounding erythema was palpated, there was no tenderness. The wound appeared to be repairing and increasing the vascular flow to the ulcer base and surrounding skin. The patient felt that after treating the entire for seven days they improved by 40%. The patient was given more preparation containing TB4 for the next week. The internist felt that the patient should not undergo surgery for grafting due to cardiac problems in view of the improvement in the wound.

[4] = system: ulcerations of fingers secondary to burns, diabetes mellitus; test: Clinical course of Patient 2, finger ulcerations; format: in vivo, human
Experimental: The glucose levels of the patient were not kept under control. The patient developed heat burns with blistering and erosions on the patient's fingers. The ulcers are cleansed and Silvadene cream is used for wound healing, which usually takes 2-4 weeks. Occasionally, systematic antibiotics are given.
The patient was seen after having burned the distal phalanx of the left middle finger with a hairdryer 10 days before. The patient had taken some leftover Ceftin 250 mg twice daily and has used Silvadene cream twice daily for the 10 days, but the ulcer would not heal. The ulcer was debrided and the patient was given a preparation containing TA5 to use on the ulcer base twice daily. This ulcer was on the lateral thenar side of the left middle finger.
Approximately six weeks later, the patient had developed new ulcerations of the right index finger on the palmar-ventral side (5 days), and two ulcerations on the right middle finger on the distal digit, lateral thenar side (5 days) and the second digit on the dorsal side (2 weeks history). These ulcerations had developed after the patient had handled hot items. Dicloxacillin (500 mg twice daily) was given for 10 days. The patient was given TB4 wound healing preparation to be used twice daily to the ulcerations.

[5] = system: healed wound erythema, melanin pigmentation; test: Clinical effects of TB4 in vivo (erythema, pigmentation)
Excerpt: There was not post-inflammatory erythema and hyperpigmentation. Frequently, the skin color was normal and not the expected deep red-purple with brown coloration that would take months to resolve on the leg.
Another effect seen is the reduction of melanin pigmentation on the areas of treatment with TB4.

[6] = system: endothelial cells; test: MTT (tetrazolium) endothelial cell proliferation assay; format: cell-based; settings: 10 ng/ml; 4 hours and 24 hours
Experimental: The effects of TB4 and TA1 on endothelial cell proliferation were determined using a MTT (tetrazolium) assay. The results are shown in FIG. 2 for 4 hours and 24 hours and for three concentrations of these peptides, 10 ng/ml, 100 ng/ml, and 1000 ng/ml. […] At a concentration of 10 ng/ml, TB4 and TA1 maximally stimulated cell proliferation approximately 2-fold and 3-fold over that of the control, respectively.

[7] = Isoelectric point of peptide; format: physicochemical
[8] = system: chronic wounds; test: Pilot study in humans with chronic wounds, collagen synthesis; format: in vivo, human; settings: 20 volunteers, biopsies at baseline and two months, preliminary results
Experimental: A pilot study of TA1 and TA5 was performed in humans with 20 volunteers with chronic wounds. Skin biopsies were taken at the baseline and at two months, subjected to histological analysis, immunohistological analysis, and objective and subjective observation. Immunohistochemistry endpoints were epidermal differentiation, epidermal proliferation, and markers of inflammation and were assayed by using anti-CD3 monoclonal antibody.

[9] = system: full thickness punch wounds in rat skin; test: Wound healing in vivo, full thickness punch wounds
Experimental: To study the effect of TA1 on wound healing in vivo, full thickness punch wounds were made in rat skin and treated with TA1 topically or by intraperitoneal injection with a seven-day study interval. For topical treatment, 5 μg of TA1 was applied in 50 μl saline on injury date and 48 hours post-injury. For intraperitoneal treatment, 60 μg of TA1 was administered in 300 μl saline on injury date and then every other day.

[10] = 10 μg/ml, 5×10^4 cells per well

Row | Substance | migration of cells into the wounded area compared to media alone [1] | Cell Number per HPF, Chamber 1 ([2]; 0.1 μg/ml) [per HPF] | Cell Number per HPF, Chamber 2 ([2]; 0.1 μg/ml) [per HPF] | Cell Number per HPF, Chamber 3 ([2]; 0.1 μg/ml) [per HPF] | Cell Number per HPF, Mean ([2]; 0.1 μg/ml) [per HPF] | cell migration over migration in the presence of media alone [2] | migration response compared to positive controls VEGF, PDGF, FGF [2] | Cell Number per HPF, Chamber 1 ([2]; 0.5 μg/ml) [per HPF] | Cell Number per HPF, Chamber 2 ([2]; 0.5 μg/ml) [per HPF] | Cell Number per HPF, Chamber 3 ([2]; 0.5 μg/ml) [per HPF] | Cell Number per HPF, Mean ([2]; 0.5 μg/ml) [per HPF] | Cell Number per HPF, Chamber 1 ([2]; 1 μg/ml) [per HPF] | Cell Number per HPF, Chamber 2 ([2]; 1 μg/ml) [per HPF] | Cell Number per HPF, Chamber 3 ([2]; 1 μg/ml) [per HPF] | Cell Number per HPF, Mean ([2]; 1 μg/ml) [per HPF] | Cell Number per HPF, Chamber 1 ([2]; 5 μg/ml) [per HPF] | Cell Number per HPF, Chamber 2 ([2]; 5 μg/ml) [per HPF] | Cell Number per HPF, Chamber 3 ([2]; 5 μg/ml) [per HPF] | Cell Number per HPF, Mean ([2]; 5 μg/ml) [per HPF] | Cell Number per HPF, Chamber 2 ([2]; 10 μg/ml) [per HPF] | other results
1 | Ac-ANKGQAPGEAMKPSFLKEKKEVVERSKEEEGPAKMNLVIEMPKD (Ac-ANKGQAPGEAMKPSFLKEKKEVVERSKEEEGPAKMNLVIEMPKD) [TB4] | significantly increased | 18 | 12 | 26 | 19 | significantly enhanced cell migration | heightened responses | 33 | 39 | 50 | 41 | 45 | 47 | 63 | 52 | 55 | 65 | 57 | 59 | 77 | Cell Number per HPF, Chamber 3 ([2]; 10 μg/ml): 66 per HPF; Cell Number per HPF, Mean ([2]; 10 μg/ml): 71 per HPF; Cell Number per HPF, Chamber 1 [2, 10]: 70 per HPF; concentration of maximal effect on migration [2]: 100 ng/mL; size of the ulcer ([3]; after another seven days (14 days), peripheral islands of healing): size of the ulcer was the same; improvement felt by the patient ([3]; after treating entire ulcer for seven days): 40%; status of ulcer ([3]; another seven days after FIG. 11): almost completely closed; status of ulcer ([3]; another two weeks, once daily, FIG. 12): no ulceration; ulcers cleared ([4]; another five days (12 days)): approximately 90%; improvement in the ulcerations ([4]; one week, twice daily, dicloxacillin also given): 70-80%; clinical intensity of brown melasma, lentigines, post-inflammatory hyperpigmentation and ephelides ([5]; areas of treatment): definite reduction in the clinical intensity; effect on erythema of the healed wound ([5]; e.g. on the shin): reducing the erythema of the healed wound; erythema of poikiloderma vasculare of the neck secondary to chronic sun exposure ([5]; evaluation not continued): erythema was reducing; maximal stimulation of cell proliferation over that of the control [6]: approximately 2 fold
2 | Ac-SDAAVDTSSEITTKDLKEKKEVVEEAEN [TA1] | significantly increased | 38 | 45 | 33 | 39 | significantly enhanced cell migration | heightened responses | 52 | 53 | 57 | 54 | 64 | 69 | 43 | 59 | 35 | 64 | 72 | 57 | 55 | Cell Number per HPF, Chamber 3 ([2]; 10 μg/ml): 66 per HPF; Cell Number per HPF, Mean ([2]; 10 μg/ml): 57 per HPF; Cell Number per HPF, Chamber 1 [2, 10]: 51 per HPF; concentration of maximal effect on migration [2]: 100 ng/mL; status of ulcer ([3]; after 1 week, twice daily to the small 4 mm area): improvement was noted; deeper 4 mm area of the ulceration ([3]; after 2 weeks, twice daily): now level with the rest of the ulcer; isoelectric point [7]: 4.1; stimulating collagen synthesis compared with tretinoin and vitamin C [8]: more effective in stimulating collagen synthesis than tretinoin or vitamin C; maximal stimulation of cell proliferation over that of the control [6]: ~3 fold; 4-day post-injury findings: capillary ingrowth and collagen deposition ([9]; 4-day post-injury): increased capillary ingrowth and collagen deposition; 4-day post-injury findings: reepithelialization, wound contraction, keratinocyte migration ([9]; 4-day post-injury): accelerated reepithelialization, wound contraction, and keratinocyte migration; decrease in wound width versus normal saline control ([9]; intraperitoneal 60 μg, p 0.0001 four-day, p 0.08 seven-day): 42%±9%; decrease in gap size versus normal saline (NS) control ([9]; intraperitoneal 60 μg, p 0.0007 for four-day and seven-day results): 42%±9%; decrease in wound width versus normal saline (NS) control ([9]; topical 5 μg, p 0.0001 four and seven-day results): 15%; decrease in gap size versus normal saline (NS) control ([9]; topical 5 μg, significant for seven-day results (p 0.04)): 18%±12%
3 | KKLKKEENPLELKEKLKEKKNPLPSKEEEKASPFDKI -T-E-T-P-D-M-S [TA5] |  |  |  |  |  |  |  |  |  |  |  |  |  |  |  |  |  |  |  |  | new shallow ulceration resolved ([4]; one week, twice daily): approximately 70%; status of ulcer, left middle finger ([4]; one week, twice daily on ulcer base): dramatic improvement of the ulcer base; older, deeper ulceration healing ([4]; two weeks, twice daily): healing more rapidly than previously; stimulating collagen synthesis compared with tretinoin and vitamin C [8]: more effective in stimulating collagen synthesis than tretinoin or vitamin C
4 | VEGF [reference compound] |  |  |  |  |  |  |  |  |  |  |  |  |  |  |  |  |  |  |  |  | Cell Number per HPF, Chamber 1 ([2]; 10 ng/ml, positive control): 88 per HPF; Cell Number per HPF, Chamber 2 ([2]; 10 ng/ml, positive control): 95 per HPF; Cell Number per HPF, Chamber 3 ([2]; 10 ng/ml, positive control): 97 per HPF; Cell Number per HPF, Mean ([2]; 10 ng/ml, positive control): 93 per HPF
